# Molecular target: T1, Sfm1 (Saccharomyces cerevisiae, UniProt Q12314)
# T1 construct: full length, residues 1-213; C-terminal His6 tag (crystal) or N-terminal GST tag (activity assay), E. coli BL21(DE3); monomer
# Assay: X-ray crystallography, […] Å
# Type: binding
# Conditions: co-crystallised with SAH ([…] molar ratio), pH […] °C; cofactor pocket of trefoil knot
compound,measurement,value
Nc1ncnc2c1ncn2[C@@H]1O[C@H](CSCC[C@H](N)C(=O)O)[C@@H](O)[C@H]1O [SAH],"X-ray crystallography, 2.5 Å","In the SAH-bound Sfm1 structure, SAH is clearly defined in the electron density map"

# From article PMC4860837, “Structural basis for Sfm1 functioning as a protein arginine methyltransferase” (Cell Discovery, 2015)
